Test results: ChEMBL document CHEMBL4419169, “Novel Ferroportin Inhibitors” (2018)

How the values were obtained:
Format in all cases: functional
Mus musculus [1] = experiment: Decrease in serum iron in mouse model of transfusion-independent beta-thalassemia intermedia at 20 mg/kg, po BID for 20 days relative to control; set-up: scale not given: the % may be the effect or the level left
Mus musculus [2] = experiment: Disease modifying capacity in mouse model of transfusion-independent beta-thalassemia intermedia assessed as prevention of liver [58Fe] loading at 20 mg/kg, po BID for 20 days relative to control
Mus musculus [3] = experiment: Disease modifying capacity in mouse model of transfusion-independent beta-thalassemia intermedia assessed as increase in blood erythrocyte counts at 60 mg/kg, po BID for 20 days relative to control
Mus musculus [4] = experiment: Disease modifying capacity in mouse model of transfusion-independent beta-thalassemia intermedia assessed as decrease in RDW level at 60 mg/kg, po BID for 20 days relative to control; set-up: scale not given: the % may be the effect or the level left
Mus musculus [5] = experiment: Disease modifying capacity in mouse model of transfusion-independent beta-thalassemia intermedia assessed as decrease in blood reticulocyte counts at 20 mg/kg, po BID for 20 days relative to control; set-up: scale not given: the % may be the effect or the level left
Rattus norvegicus [6] = experiment: Prevention of iron absorption in anemic Wistar rat model of iron absorption assessed as inhibition of increase in serum iron at 3 mg/kg, po pre-dosed 1 hr before ferrous sulfate dosing and measured 3 hours after iron dosing
Mus musculus [7] = experiment: Induction of hypoferremia in wild type C57BL/6 mouse assessed as decrease in serum iron levels at 30 mg/kg, po measured after 3 hrs post dose; set-up: scale not given: the % may be the effect or the level left
Mus musculus [8] = experiment: Disease modifying capacity in mouse model of transfusion-independent beta-thalassemia intermedia assessed as decrease in RDW level at 20 mg/kg, po BID for 20 days relative to control; set-up: scale not given: the % may be the effect or the level left
Mus musculus [9] = experiment: Disease modifying capacity in mouse model of transfusion-independent beta-thalassemia intermedia assessed as decrease in relative spleen weight at 60 mg/kg, po BID for 20 days relative to control; set-up: scale not given: the % may be the effect or the level left
Mus musculus [10] = experiment: Prevention of hyperferremia in iron overloaded beta2-microglobulin deficient male mouse assessed as reduction in serum iron level at 20 mg/kg, po measured after 3 hrs relative to control; set-up: scale not given: the % may be the effect or the level left
Mus musculus [11] = experiment: Disease modifying capacity in mouse model of transfusion-independent beta-thalassemia intermedia assessed as decrease in leukocyte counts level at 60 mg/kg, po BID for 20 days relative to control; set-up: scale not given: the % may be the effect or the level left
Mus musculus [12] = experiment: Prevention of hyperferremia in iron overloaded beta2-microglobulin deficient female mouse assessed as reduction in serum iron level at 60 mg/kg, po measured after 3 hrs relative to control; set-up: scale not given: the % may be the effect or the level left
Mus musculus [13] = experiment: Disease modifying capacity in mouse model of transfusion-independent beta-thalassemia intermedia assessed as decrease in [58Fe] spleen iron content at 20 mg/kg, po BID for 20 days relative to control; set-up: scale not given: the % may be the effect or the level left
Mus musculus [14] = experiment: Prevention of hyperferremia in iron overloaded beta2-microglobulin deficient female mouse assessed as reduction in serum iron level at 20 mg/kg, po measured after 3 hrs relative to control; set-up: scale not given: the % may be the effect or the level left
Mus musculus [15] = experiment: Disease modifying capacity in mouse model of transfusion-independent beta-thalassemia intermedia assessed as decrease in relative spleen weight at 20 mg/kg, po BID for 20 days relative to control; set-up: scale not given: the % may be the effect or the level left
Mus musculus [16] = experiment: Disease modifying capacity in mouse model of transfusion-independent beta-thalassemia intermedia assessed as increase in blood erythrocyte counts at 20 mg/kg, po BID for 20 days relative to control
Mus musculus [17] = experiment: Induction of hypoferremia in wild type C57BL/6 mouse assessed as decrease in serum iron levels at 100 mg/kg, po measured after 3 hrs post dose; set-up: scale not given: the % may be the effect or the level left
Mus musculus [18] = experiment: Disease modifying capacity in mouse model of transfusion-independent beta-thalassemia intermedia assessed as decrease in serum erythropoietin at 60 mg/kg, po BID for 20 days relative to control; set-up: scale not given: the % may be the effect or the level left
Mus musculus [19] = experiment: Disease modifying capacity in mouse model of transfusion-independent beta-thalassemia intermedia assessed as decrease in [58Fe] spleen iron content at 60 mg/kg, po BID for 20 days relative to control; set-up: scale not given: the % may be the effect or the level left
Rattus norvegicus [20] = experiment: Prevention of iron absorption in anemic Wistar rat model of iron absorption assessed as inhibition of increase in serum iron at 30 mg/kg, po pre-dosed 1 hr before ferrous sulfate dosing and measured 3 hours after iron dosing
Mus musculus [21] = experiment: Disease modifying capacity in mouse model of transfusion-independent beta-thalassemia intermedia assessed as decrease in bone marrow ROS levels level at 60 mg/kg, po BID for 20 days relative to control; set-up: scale not given: the % may be the effect or the level left
Mus musculus [22] = experiment: Disease modifying capacity in mouse model of transfusion-independent beta-thalassemia intermedia assessed as decrease in leukocyte counts level at 20 mg/kg, po BID for 20 days relative to control; set-up: scale not given: the % may be the effect or the level left
Mus musculus [23] = experiment: Decrease in serum iron in mouse model of transfusion-independent beta-thalassemia intermedia at 60 mg/kg, po BID for 20 days relative to control; set-up: scale not given: the % may be the effect or the level left
Mus musculus [24] = experiment: Disease modifying capacity in mouse model of transfusion-independent beta-thalassemia intermedia assessed as decrease in serum erythropoietin at 20 mg/kg, po BID for 20 days relative to control; set-up: scale not given: the % may be the effect or the level left
Mus musculus [25] = experiment: Disease modifying capacity in mouse model of transfusion-independent beta-thalassemia intermedia assessed as increase in hematocrit levels at 60 mg/kg, po BID for 20 days relative to control
Mus musculus [26] = experiment: Disease modifying capacity in mouse model of transfusion-independent beta-thalassemia intermedia assessed as decrease in bone marrow ROS levels level at 20 mg/kg, po BID for 20 days relative to control; set-up: scale not given: the % may be the effect or the level left
Mus musculus [27] = experiment: Disease modifying capacity in mouse model of transfusion-independent beta-thalassemia intermedia assessed as prevention of liver [58Fe] loading at 60 mg/kg, po BID for 20 days relative to control
Mus musculus [28] = experiment: Disease modifying capacity in mouse model of transfusion-independent beta-thalassemia intermedia assessed as increase in hematocrit levels at 20 mg/kg, po BID for 20 days relative to control
Rattus norvegicus [29] = experiment: Prevention of iron absorption in anemic Wistar rat model of iron absorption assessed as inhibition of increase in serum iron at 10 mg/kg, po pre-dosed 1 hr before ferrous sulfate dosing and measured 3 hours after iron dosing
Mus musculus [30] = experiment: Prevention of hyperferremia in iron overloaded beta2-microglobulin deficient male mouse assessed as reduction in serum iron level at 60 mg/kg, po measured after 3 hrs relative to control; set-up: scale not given: the % may be the effect or the level left
Mus musculus [31] = experiment: Induction of hypoferremia in wild type C57BL/6 mouse assessed as decrease in serum iron levels at 10 mg/kg, po measured after 3 hrs post dose; set-up: scale not given: the % may be the effect or the level left

With `O=C(NCc1ncccc1F)c1cnc(C2CN(CCc3nc4ccccc4[nH]3)C2)o1` as the compound, how does the Activity (Mus musculus [1]) read?
Its Activity is 50%.

And the Activity (Mus musculus [2])?
Its Activity is 14%.

And the Activity (Mus musculus [3])?
Its Activity is 33%.

And the Activity (Mus musculus [4])?
The Activity was 15%.

And the Activity (Mus musculus [5])?
Its Activity is 0%.

What about the inhibition in vivo at 3 mg/kg (Rattus norvegicus [6]) of the same compound?
Its inhibition in vivo at 3 mg/kg is -3%.

What about the Activity (Mus musculus [7]) of the same compound?
Its Activity is 26%.

And the Activity (Mus musculus [8])?
Its Activity is 0%.

What about the Activity (Mus musculus [9]) of the same compound?
Its Activity is 47%.

What about the Activity (Mus musculus [10]) of the same compound?
Its Activity is 29%.

And the Activity (Mus musculus [11])?
The Activity was 55%.

And the Activity (Mus musculus [12])?
The Activity was 57%.

What about the Activity (Mus musculus [13]) of the same compound?
The Activity was 13%.

What about the Activity (Mus musculus [14]) of the same compound?
The Activity was 27%.

What about the Activity (Mus musculus [15]) of the same compound?
The Activity was 16%.

And the Activity (Mus musculus [16])?
Its Activity is 0%.

What about the Activity (Mus musculus [17]) of the same compound?
Its Activity is 50%.

And the Activity (Mus musculus [18])?
The Activity was 27%.

What about the Activity (Mus musculus [19]) of the same compound?
The Activity was 40%.

What about the inhibition in vivo at 30 mg/kg (Rattus norvegicus [20]) of the same compound?
Its inhibition in vivo at 30 mg/kg is 57%.

And the Activity (Mus musculus [21])?
Its Activity is 65%.

What about the Activity (Mus musculus [22]) of the same compound?
The Activity was 29%.

And the Activity (Mus musculus [23])?
The Activity was 69%.

What about the Activity (Mus musculus [24]) of the same compound?
Its Activity is 4%.

What about the Activity (Mus musculus [25]) of the same compound?
The Activity was 15%.

And the Activity (Mus musculus [26])?
The Activity was 13%.

What about the Activity (Mus musculus [27]) of the same compound?
Its Activity is 47%.

What about the Activity (Mus musculus [28]) of the same compound?
Its Activity is 0%.

And the inhibition in vivo at 10 mg/kg (Rattus norvegicus [29])?
Its inhibition in vivo at 10 mg/kg is 29%.

What about the Activity (Mus musculus [30]) of the same compound?
Its Activity is 66%.

What about the Activity (Mus musculus [31]) of the same compound?
Its Activity is 9%.
